# How the values were obtained:
# jugular vein of rabbits = experiment: Contraction of rabbit jugular vein under depolarizing hyperpotassic conditions; assay type: cell-based; conditions: Oryctolagus cuniculus, pH 7.4, read-out: ED50 (contraction)
# Method: (§1) The contractile effects are measured in vitro under static conditions on vascular capacitance or resistance rings of saphenous, femoral, jugular, mesenteric, and caval veins . . . and on femoral, carotid, basilar, or mesenteric arteries, as well as the thoracic or abdominal aorta . . . in rats (Wistar, 200-250 g), rabbits (New Zealand, 2-2.5 kg), guinea pigs (Dunkin Hartley 250-300 g).
# (§2) The rings are placed in a chamber for isolated organs (25 mL for capacitance vessels and 2.5 mL for resistance vessels according to Mulvany), and maintained under isometric conditions using two rigid threads inserted inside the vessel, avoiding causing damage to the endothelium. The vessels are bathed in a modified Krebs solution (in mM: NaCl=118; KCl=4.6; CaCl2 =2.5; MgSO4 =1.2; KH2 PO4 =1.17; NaHCO3 =25; glucose=11), continuously aerated using a gaseous mixture of 95% O2 and 5% Co2, at a pH=7.4, and regulated by thermostat at 37° C. The rings are adjusted to their optimal point as far as the tension-length relationship is concerned. […] The pharmacological studies are carried out after a few standardized preliminary contractile stimulations using a depolarizing solution (hyperpotassic type obtained by replacing NaCl with KCl in equimolar quantities), along with rinsings and periods of equilibration in a pure physiological solution. […]
# [1] = tested on: saphenous vein in rabbits; experiment: Contractile effect on the rabbit saphenous vein precontracted by a depolarizing physiological solution (K+ 40 mM); assay type: cell-based; conditions: Oryctolagus cuniculus, precontracted with 40 mM potassium
# Method: as §1
# The rings are placed in a chamber for isolated organs (25 mL for capacitance vessels and 2.5 mL for resistance vessels according to Mulvany), and maintained under isometric conditions using two rigid threads inserted inside the vessel, avoiding causing damage to the endothelium. The vessels are bathed in a modified Krebs solution (in mM: NaCl=118; KCl=4.6; CaCl2 =2.5; MgSO4 =1.2; KH2 PO4 =1.17; NaHCO3 =25; glucose=11), continuously aerated using a gaseous mixture of 95% O2 and 5% Co2, at a pH=7.4, and regulated by thermostat at 37° C. The rings are adjusted to their optimal point as far as the tension-length relationship is concerned. The tensions developed generate an electrical signal through the intermediary of a force sensor (Wheatstone bridge). […] The pharmacological studies are carried out after a few standardized preliminary contractile stimulations using a depolarizing solution (hyperpotassic type obtained by replacing NaCl with KCl in equimolar quantities), along with rinsings and periods of equilibration in a pure physiological solution. The presence of endothelium is verified by the relaxation induced by increasing the concentration of acetylcholine after the stabilization of a vascular precontraction.
# The forces of contraction developed by the vascular rings in response to the different compounds are studied on quiescent or electrically stimulated vessels (5-8 Hz), by a "physiological" depolarizing hyperpotassic solution (KCl: 20, 40 mM), by noradrenaline (increasing concentrations), [and by] serotonin (increasing concentrations).
# The contractions are expressed in mg force or as a percentage of the maximum contraction at the time of the depolarization with a "physiological" hyperpotassic solution.
# The contractile effect of different compounds on the saphenous vein in rabbits, precontracted by a depolarizing "physiological" solution with a potassium concentration of 40 mM, is given as an illustration; the maximum effect produced by each compound is expressed as a percentage of the maximum contraction induced by depolarizing hyperpotassic solutions and as value of ED50): […]
# [2] = tested on: dorsal cutaneous chamber in hamsters; experiment: Dorsal cutaneous chamber in hamsters (microcirculation, histamine); assay type: in vivo; conditions: hamster, 28 mg/kg i.v. bolus, after histamine 1 mg/kg i.v.
# Method: (§3) In the conscious animal, the arterial pressures are measured according to the classical method derived from Riva Rocci, by the analysis of the acoustical wave transmitted at the arterial level and transformed by a ceramic piezo transducer placed on the tail of the rat, downstream from a sleeve that is automatically inflated by a pressure generator. At the microcirculatory level, the variations in the sections of the veinules and arterioles are studied in vivo in the model of the dorsal cutaneous chamber of conscious hamsters, after a video microscopic recording (microscope Leitz Ergolux equipped with a halogen source for the illumination and its black-and-white CD video camera HPR 610) and computer analysis (software Visicap, Pack ICAP) of the images.
# After anesthesia with sodium pentobarbital (60 mg/kg in i.p. administration), the back of the animal is shaved and hair is pulled so as to be able to put an observation chamber (Professor Gebhard, Heidelberg) on the back skin. The two parts of this chamber are sewn after careful removal of a certain level of skin thicknesses, which can impede the observation. A jugular catheter is placed for the i.v. administration of the products, 48 h after the operation.
# The effect of the compounds on the hyperpermeability induced by inflammatory agents, such as histamine and bradykinin, is also studied after intravenous injection in a bolus in the model of the dorsal cutaneous chamber of hamsters and according to the method developed by Gimeno et al., described earlier ("A new technique using intravital videomicroscopy for macromolecular permeability measurement," 18th European Congress on Microcirculation, Rome, 1994) using videomicroscopy and image analysis by quantification of the distribution of the intra- and extravascular fluorescence of the fluorescent marker (FITC-Dextran) injected in a bolus through the jugular catheter (63 mg/kg for a volume defined at 1 mL/kg). The microscope is equipped with a fluorescence source and a combination of filters (excitation in the blue range 450-490 nm, and 515-nm stop filter).
# [3] = tested on: saphenous vein in rabbits; experiment: Potentiation of the contractile response of the rabbit saphenous vein to electrical stimulation; assay type: cell-based; conditions: Oryctolagus cuniculus, read-out: increase of contractile response due to electrical stimulation
# Method: as §1, §2
# [4] = tested on: arterial pressure of the conscious rat; experiment: Arterial pressure of the conscious rat; assay type: in vivo; conditions: oral 0.1-5-50 mg/kg
# Method: as §3
# [5] = tested on: hyperpermeability induced by zymosan in rats; experiment: Inflammatory hyperpermeability induced by zymosan in rats; assay type: in vivo, rat (Wistar); conditions: rat, oral, 5 mg/kg
# Method: The vascular permeability is studied in vivo by measuring the extravasation of albumin, the quantity of which is determined using an albumin-binding dye (Evans blue).
# The hyperpermeability is induced by the intradermal injection of a solution of histamine, bradykinin, or zymosan.
# The abdominal walls of the rats (Wistar, 200-230 g) are shorn 1 h before the start of the experiment. The product to be tested is injected by the intraperitoneal route or orally 1-4 h before the sacrifice. The rats are anesthetized with a halothane mixture. They then receive an intradermal injection in their abdomen of 0.10 or 0.15 mL (or for histamine 6.7 or […]) of inflammatory agent and an intravenous injection of 1 mL of 0.5% Evans blue solution in the vein of the penis. These injections are carried out 30 min before the sacrificing.
# 30 min after these two injections, the rats are sacrificed by cervical dislocation.
# At the site of the injection of the inflammatory agent, the skin is cut and placed into glass tubes with a ground[-glass] neck containing 3 mL of fuming hydrochloric acid. […] After allowing the preparation to stand for 30 min, 7 mL of dichloromethane are added. The tubes are periodically agitated for 1 h. The aqueous phase is eliminated by aspiration, and the organic "dichloromethane" phase is filtered. The optical densities are quantified by absorption spectrophotometry at a wavelength of 620 nm, against a blank [control] containing only dichloromethane. The averages of the optical densities of the different lots of treated or control animals are calculated, then a percentage of variation of the values corresponding to the treated [experimental] animals compared to those of the control animals is calculated.
smiles,measurement,setting,value
"O=C1c2ccccc2C(=O)c2sc(-c3ccco3)nc21 [Example n, 4,9-Dihydro-4,9-dioxo-2-(2-furyl)-naphtho[2,3-d]thiazole]",EC50,jugular vein of rabbits,16 nM
same,Emax,[1]; % of maximum contraction induced by hyperpotassic solutions,24 ± 3%
same,EC50,[1]; read-out: ED50 (the source's name),110 nM
same,arteriolar diameter,[2],not the arteriolar diameter
same,histamine-induced vascular hyperpermeability,[2],reduces the vascular hyperpermeability
same,veinule diameter,[2],reduces the veinule diameter
same,activation at 0.3 µM,[3],200%
same,arterial pressure,[4],does not affect the arterial pressure
same,"Zymosan-induced hyperpermeability, effect after 2 h",[5]; 2 h,0 % of the control
same,"Zymosan-induced hyperpermeability, effect after 4 h",[5]; 4 h,-21 % of the control
